The record followed here is PubChem BioAssay (NCI).

The structures appear in SMILES notation.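 48-hour exposure; five concentrations; linearly interpolated endpoints. The concentration for 50% growth inhibition is given as GI50. Definition used: TGI = concentration required for complete inhibition of growth.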 Where a SMILES comes first, the peptide text is derived from it. [ ]: non-standard residue; d: D form. NMeY = CN[C@@H](Cc1ccc(O)cc1)C(=O)O; dNMeF = CN[C@H](Cc1ccccc1)C(=O)O; Sar = CNCC(=O)O Some results are limits rather than exact numbers.

Some test systems named below: PC-3 prostate; LOX IMVI melanoma; DU-145 prostate; IGROV1 ovarian; RPMI-8226 leukemia; HCC-2998 colon; A498 renal; SF-295 CNS; SNB-75 CNS; SK-MEL-28 melanoma.
What all share (assay): NCI tumour cell line growth inhibition, 48 h

For the compound `Nc1c(C(=O)c2cccc(CCC3(O)CCCC3)c2)cnn1-c1ccc(F)cc1`, the GI50 in the test with PC-3 prostate was 8.98 µM; in the test on LOX IMVI melanoma, above 25 µM; in the test on DU-145 prostate, above 21.1 µM; in the test on IGROV1 ovarian, above 25 µM; with RPMI-8226 leukemia it was 9.23 µM; with HCC-2998 colon it was above 25 µM. Further, the GI50 was 3.62 µM with A498 renal, 9.4 µM with SF-295 CNS, 8.47 µM with SNB-75 CNS and above 22.9 µM with SK-MEL-28 melanoma. The TGI with PC-3 prostate, in the test on LOX IMVI melanoma, with DU-145 prostate, in the test with IGROV1 ovarian, with RPMI-8226 leukemia and with HCC-2998 colon was above 25 µM throughout. For the same compound, the TGI in the test on A498 renal, in the test on SF-295 CNS, in the test on SNB-75 CNS and with SK-MEL-28 melanoma was above 25 µM in each case.
Regarding `C[C@]12CCC3c4ccc(O)cc4CCC3C1Cc1ccc(O)cc12` (stereo not given in full), the GI50 in the test with PC-3 prostate is 7.25 µM; in the test with LOX IMVI melanoma it was 6.53 µM; with DU-145 prostate, 11.5 µM; in the test on IGROV1 ovarian it was 9.72 µM; in the test on RPMI-8226 leukemia, 3.75 µM; in the test with HCC-2998 colon it was 5.44 µM. In addition, the GI50 in the test on A498 renal is 6.18 µM; in the test on SF-295 CNS, 12.8 µM; in the test on SNB-75 CNS it was 6.35 µM; with SK-MEL-28 melanoma, 8.72 µM. Moreover, the TGI with PC-3 prostate came out at 22.4 µM; in the test on LOX IMVI melanoma it was 21.3 µM; with DU-145 prostate, 28.5 µM; with IGROV1 ovarian it was 26.1 µM; in the test with RPMI-8226 leukemia it was 18 µM; in the test on HCC-2998 colon, 18.4 µM. Besides, the TGI in the test with A498 renal amounted to 19.7 µM; in the test with SF-295 CNS, 34.2 µM; with SNB-75 CNS, 31.2 µM; in the test on SK-MEL-28 melanoma it was 22.7 µM.
With `CO[C@H]1C[C@@H]2CC[C@@H](C)[C@@](O)(O2)C(=O)C(=O)N2CCCC[C@H]2C(=O)O[C@H]([C@H](C)C[C@@H]2CC[C@@H](OP(C)(C)=O)[C@H](OC)C2)CC(=O)[C@H](C)/C=C(\C)[C@@H](O)[C@@H](OC)C(=O)[C@H](C)C[C@H](C)/C=C/C=C/C=C/1C`, the GI50 with PC-3 prostate is below 0.0419 µM; in the test on LOX IMVI melanoma, below 0.01 µM; in the test with DU-145 prostate, 10.4 µM; in the test on IGROV1 ovarian it was below 0.01 µM; with RPMI-8226 leukemia, 8.49 µM; in the test on HCC-2998 colon it was 5.02 µM. Moreover, the GI50 in the test on A498 renal was below 0.01 µM; with SF-295 CNS it was below 0.01 µM; with SNB-75 CNS, below 0.01 µM; in the test with SK-MEL-28 melanoma it was 11 µM. The TGI in the test with PC-3 prostate amounted to 18.8 µM; in the test on LOX IMVI melanoma it was 21.7 µM; with DU-145 prostate, 22.4 µM; in the test with IGROV1 ovarian, 18.3 µM; with RPMI-8226 leukemia, 40.6 µM; in the test with HCC-2998 colon it was 24.7 µM. The TGI was found to be 15.5 µM in the test on A498 renal, 15.5 µM in the test on SF-295 CNS, 15.7 µM with SNB-75 CNS and 23.8 µM with SK-MEL-28 melanoma.
With `Cc1ccc(N=Nc2c(N)nn(-c3ccccc3)c2N)cc1`, the GI50 was 1.53 µM with PC-3 prostate; 5.78 µM in the test on LOX IMVI melanoma; 3.44 µM with DU-145 prostate; 4.5 µM with IGROV1 ovarian; 1.61 µM in the test with RPMI-8226 leukemia; 0.912 µM in the test on HCC-2998 colon. Moreover, the GI50 with A498 renal is 1.95 µM; with SF-295 CNS it was 1.83 µM; in the test with SNB-75 CNS it was 2.3 µM; with SK-MEL-28 melanoma, 8.97 µM. Also, the TGI in the test on PC-3 prostate was 6.17 µM; in the test with LOX IMVI melanoma, above 100 µM; in the test with DU-145 prostate, above 100 µM; with IGROV1 ovarian, above 100 µM; with RPMI-8226 leukemia, 42 µM; in the test on HCC-2998 colon it was above 100 µM. For the same compound, the TGI is above 28.7 µM in the test on A498 renal, above 57.1 µM in the test with SF-295 CNS, above 78.3 µM in the test with SNB-75 CNS and above 100 µM in the test with SK-MEL-28 melanoma.
Take `CC[C@H](C)[C@@H]1NC(=O)[C@H](Cc2ccc(O)cc2)N(C)C(=O)[C@H](Cc2ccccc2)NC(=O)CN(C)C(=O)[C@@H]2CCCN2C(=O)[C@@H](Cc2ccccc2)N(C)C(=O)[C@H](CC(C)C)NC1=O` (cyclo(F[NMeY]IL[dNMeF]P[Sar])): the GI50 is 0.28 µM with PC-3 prostate; 0.197 µM in the test on LOX IMVI melanoma; 0.205 µM in the test with DU-145 prostate; 0.21 µM in the test with IGROV1 ovarian; 0.229 µM in the test on RPMI-8226 leukemia; 0.39 µM in the test on HCC-2998 colon. Further, the GI50 with A498 renal was 0.695 µM; in the test with SF-295 CNS it was 0.428 µM; in the test with SNB-75 CNS, 0.206 µM; with SK-MEL-28 melanoma, 0.194 µM. The TGI in the test on PC-3 prostate came to 6.21 µM; in the test on LOX IMVI melanoma, 1.89 µM; in the test on DU-145 prostate, 10.9 µM; with IGROV1 ovarian, 5.2 µM; in the test on RPMI-8226 leukemia, 1.2 µM; with HCC-2998 colon, 5.01 µM. In addition, the TGI with A498 renal worked out at 6.11 µM; with SF-295 CNS it was 3.5 µM; in the test on SNB-75 CNS it was 2.78 µM; in the test with SK-MEL-28 melanoma it was 1.46 µM.
As for `CCOC(=O)Cn1c(C)c(/C=N/NC(=O)c2cc3c(ccc4ccccc43)o2)c2ccccc21`, the GI50 was 0.332 µM with PC-3 prostate; 0.537 µM with LOX IMVI melanoma; 0.411 µM in the test with DU-145 prostate; 0.527 µM in the test with IGROV1 ovarian; 0.443 µM in the test with RPMI-8226 leukemia; 0.609 µM in the test on HCC-2998 colon. Besides, the GI50 in the test on A498 renal was 0.134 µM; with SF-295 CNS, 0.323 µM; in the test with SNB-75 CNS, 0.244 µM; in the test on SK-MEL-28 melanoma, 1.66 µM. Moreover, the TGI with PC-3 prostate was found to be 6 µM; in the test on LOX IMVI melanoma, 2.78 µM; in the test with DU-145 prostate, 2.93 µM; with IGROV1 ovarian it was 3.47 µM; in the test with RPMI-8226 leukemia, 3.12 µM; in the test with HCC-2998 colon, 2.84 µM. The TGI in the test on A498 renal came to 1.04 µM; in the test on SF-295 CNS, 1.65 µM; in the test on SNB-75 CNS it was 1.42 µM; in the test with SK-MEL-28 melanoma, 30.5 µM.
In the case of `COc1cccc(-n2ncc3c(N/N=C/c4ccc(S(C)(=O)=O)cc4)ncnc32)c1`, the GI50 with PC-3 prostate is 6.63 µM; in the test with LOX IMVI melanoma, 2.34 µM; with DU-145 prostate it was 16.4 µM; with IGROV1 ovarian, 11 µM; with RPMI-8226 leukemia, above 22.9 µM; in the test with HCC-2998 colon, 12.4 µM. Besides, the GI50 in the test with A498 renal is 0.75 µM; with SF-295 CNS, 12.3 µM; with SNB-75 CNS it was 1.89 µM; in the test on SK-MEL-28 melanoma, 9.26 µM. The TGI with PC-3 prostate was above 20.9 µM; in the test with LOX IMVI melanoma, above 25 µM; in the test with DU-145 prostate it was above 25 µM; in the test with IGROV1 ovarian, above 25 µM; with RPMI-8226 leukemia, above 25 µM; in the test on HCC-2998 colon, above 25 µM. Further, the TGI in the test on A498 renal was 11.3 µM; in the test with SF-295 CNS, above 25 µM; in the test on SNB-75 CNS it was 4.32 µM; in the test on SK-MEL-28 melanoma, above 25 µM.
